This is an account of results in patent publication US10781202B2, “Azetidinyloxyphenylpyrrolidine compounds” (Eli Lilly and Company, priority 2014, dated 2020).

Molecules are shown by their SMILES.

The subject of assay [1] is chronic cyclophosphamide (CYP)-induced overactive bladder mouse model. Put plainly: Overactive Bladder In Vivo Model. Particulars: tadalafil 10 mg/kg orally daily; CYP-induced OAB female C57/B16 mice; day 8, 4 hour urine collection. As to the method:
Overactive Bladder In Vivo Model
The in vivo effect of PDE4 inhibitors on OAB is studied with a chronic cyclophosphamide (CYP)-induced overactive bladder mouse model adapted from Boudes et al., Neurourol. Urodynam. 2011. In a typical study, female C57/B16 mice, approximately 20 grams in body weight (Harlan Laboratories, Inc., Indianapolis, Ind.) are used. Mice are randomized by body weight into groups one day before the start of the study. Mice are individually housed and maintained on a 12 hour light/dark cycle at 22° C. with ad lib access to food (TD 2014 with 0.72% Ca and 0.61% P, 990 IU/g D3, Teklad™, Madison, Wis.) and water Animals receive cyclophosphamide (dissolved in physiological saline) i.p. administration at 100 mg/kg on days 1, 3, 5, and 7 to chronically induce OAB. The vehicle control group received daily vehicle (HEC 1%/Tween 80 0.25%/Antifoam 0.05%) administered orally. All other groups are administered orally tadalafil at 10 mg/kg in combination with 0.1, 1.0, or 10.0 mg/kg of test compound daily at a volume of 200 μl/mouse. On day 8, mice are housed in urine collection chambers with a filter paper placed underneath chamber. Prior to urine collection, gavages of 1 ml water are given to each mouse. […] Voiding frequency and volume/void are calculated using Image J software (NIH). Data are statistically analyzed with JMP8® software (Cary, N.C.). […]

Assay [2] has as its target PDE4B (Homo sapiens (Human), UniProt Q07343). Put plainly: PDE4 Inhibition In Vitro Assay (PDE4B). The format is biochemical. Particulars: human recombinant PDE4B; 15 minutes at 30° C.; 2.5% DMSO. As to the method:
PDE4 Inhibition In Vitro Assay
The phosphodiesterase assays are performed essentially according to the method described in Loughney, K., et al., J. Biol. Chem., 271, pp. 796-806 (1996). PDE4A, PDE4B, PDE4C, PDE4D, and PDE5 human recombinant proteins are expressed and purified from Saccharomyes cerevisiae that lack endogenous PDEs. The phosphodiesterase enzymes are diluted on ice with enzyme dilution buffer (25 mM Tris, pH 7.5, 0.1 mM DTT, 5.0 mM MgCl2, 100 mM NaCl, 5 μM ZnSO4, 100 μg/mL BSA) to give approximately 20%-40% hydrolysis of cyclic nucleotide monophosphate (cNMP) in the absence of inhibitor.
The stock solution of test compounds are diluted on the Beckman BioMek™ 1000 workstation to span a concentration range of 4.5 log units in 0.5 log increments. The DMSO concentration in the final test system is 2.5% for all PDE enzymes. The final test compound concentration tested ranged from 0.03 nM to 1 μM.
The assay is performed in a 96-well microtiter plate format on a Beckman BioMek™ 1000 robotic station. Each row of the plate represents a 10-point dose response curve containing blank (no enzyme), non-inhibited control, and inhibitor dilutions spanning 4.5 log units in concentration in 0.5 log increments. Assay stock solutions are loaded into the Biomek™ reservoirs (water, inhibitor diluent [2.5% or 10% DMSO], 5× PDE assay buffer, substrate, inhibitor solutions, enzyme solutions, snake venom nucleotidase, and charcoal suspension). The reaction is initiated with enzyme, and incubated for 15 minutes at 30° C. An excess of Crotalus atrox snake venom nucleotidase (5 μL/well) is then added and the mixture is incubated for an additional 3 minutes. The reaction is terminated by the addition of 200 μL of activated charcoal suspension, after which the plate is centrifuged for 5 minutes at 750×g. A transfer program is run in which 200 μL of supernatant is removed and placed into a new plate. The amount of radioactivity released as phosphate is determined in a Wallac MicroBeta Plate™ counter.
The reduced data at each concentration of inhibitor is analyzed using a four-, three- or two-parameter logistic dose response model to provide an IC50 value.

Sequence of PDE4B (Q07343 whole entry): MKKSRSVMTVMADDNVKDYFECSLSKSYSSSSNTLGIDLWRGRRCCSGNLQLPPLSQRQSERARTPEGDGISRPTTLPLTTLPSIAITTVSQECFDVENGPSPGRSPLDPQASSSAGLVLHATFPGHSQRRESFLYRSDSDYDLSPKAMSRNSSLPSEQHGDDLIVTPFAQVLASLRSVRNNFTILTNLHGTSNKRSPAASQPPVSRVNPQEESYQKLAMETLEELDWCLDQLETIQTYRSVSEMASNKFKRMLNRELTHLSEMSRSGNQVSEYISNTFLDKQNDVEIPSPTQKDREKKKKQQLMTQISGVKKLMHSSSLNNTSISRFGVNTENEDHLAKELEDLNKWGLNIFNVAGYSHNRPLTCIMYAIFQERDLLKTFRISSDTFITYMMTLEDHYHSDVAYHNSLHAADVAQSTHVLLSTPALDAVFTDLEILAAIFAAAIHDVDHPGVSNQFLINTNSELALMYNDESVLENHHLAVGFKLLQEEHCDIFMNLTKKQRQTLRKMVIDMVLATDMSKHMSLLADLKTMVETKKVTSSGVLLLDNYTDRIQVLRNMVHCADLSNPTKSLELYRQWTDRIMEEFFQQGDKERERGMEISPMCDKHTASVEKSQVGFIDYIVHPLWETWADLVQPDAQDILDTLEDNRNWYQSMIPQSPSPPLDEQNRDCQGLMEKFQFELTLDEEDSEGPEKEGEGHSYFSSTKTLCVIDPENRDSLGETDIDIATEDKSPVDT

Regarding `CN1CC(=O)N2[C@H](c3ccc4c(c3)OCO4)c3[nH]c4ccccc4c3C[C@@H]2C1=O` [tadalafil], in assay [1], the urinary frequency entry is listed as “no significant activity” and the volume per void entry is listed as “no significant activity”. In the case of `COc1ccc([C@@H]2CN(C(=O)[C@@H](O)CO)C[C@@]2(C)[C@@H](C)O)cc1OC1CN(c2ncccn2)C1` [Example 5, (2S)-3-[(3S,4S)-3-[(1R)-1-hydroxyethyl]-4-{4-methoxy-3-[(1-pyrimidin-2-ylazetidin-3-yl)oxy]phenyl}-3-methylpyrroldiin-1-yl]-3-oxopropane-1,2-diol], in assay [2], the 50% inhibitory concentration (IC50) is 1.5 nM. As to `COc1ccc([C@@H]2CN(C(=O)[C@@H](O)CO)C[C@@]2(C)[C@@H](C)O)cc1OC1CN(c2ccncc2)C1` [Example 3, (2S)-3-[(3S,4S)-3-[(1R)-1-hydroxyethyl]-4-{4-methoxy-3-[(1-pyridin-4-ylazetidin-3-yl)oxy]phenyl}-3-methylpyrrolidin-1-yl]-3-oxopropane-1,2-diol], the IC50 in assay [2] was found to be 7.7 nM. Take `COc1ccc([C@@H]2CN(C(=O)[C@@H](O)CO)C[C@@]2(C)[C@@H](C)O)cc1OC1CN(c2ccc(C#N)cn2)C1` [Example 6, (2S)-3-[(3S,4S)-3-[(1R)-1-hydroxyethyl]-4-(4-methoxy-3-{[1-(5-cyanopyridin-2-yl)azetidin-3-yl]oxy}phenyl)-3-methylpyrrolidin-1-yl]-3-oxopropane-1,2-diol]: the IC50 in assay [2] was 0.31 nM. For `COc1ccc([C@@H]2CN(C(=O)[C@@H](O)CO)C[C@@]2(C)[C@@H](C)O)cc1OC1CN(c2cc(Cl)ncn2)C1` [Example 8, (2S)-3-[(3S,4)S-3-[(1R)-1-hydroxyethyl]-4-{4-methoxy-3-[(1-(6-chloropyrimidin-4-yl)azetidin-3-yl)oxy]phenyl}-3-methylpyrrolidin-1-yl]-3-oxopropane-1,2-diol], the half-maximal inhibitory concentration (IC50) in assay [2] came out at 0.53 nM. On the same count and under the same terms, next, `COc1ccc([C@@H]2CN(C(=O)[C@@H](O)CO)C[C@@]2(C)[C@@H](C)O)cc1OC1CN(c2ccc(Cl)cn2)C1` [Example 12, (2S)-3-[(3S,4S)-3-[(1R)-1-hdyroxyethyl]-4-(4-methoxy-3-{[1-(5-chloropyridin-2-yl)azetidin-3-yl]oxy}phenyl)-3-methylpyrrolidin-1-yl]-3-oxopropane-1,2-diol]: 0.16 nM; `COc1ccc([C@@H]2CN(C(=O)[C@@H](O)CO)C[C@@]2(C)[C@@H](C)O)cc1OC1CN(c2cccnc2)C1` [Example 2, (2S)-3-[(3S,4S)-3-[(1R)-1-hydroxyethyl]-4-{4-methoxy-3-[(1-pyridin-3-ylazetidin-3-yl)oxy]phenyl}-3-methylpyrrolidin-1-yl]-3-oxopropane-1,2-diol]: 1.8 nM. `COc1ccc([C@@H]2CN(C(=O)[C@@H](O)CO)C[C@@]2(C)[C@@H](C)O)cc1OC1CN(c2ccncn2)C1` [Example 13, (2S)-3-[(3S,4S)-3-[(1R)-1-hydroxyethyl]-4-(4-methoxy-3-{[1-(pyrimidin-4-yl)azetidin-3-yl]oxy}phenyl)-3-methylpyrrolidin-1-yl]-3-oxopropane-1,2-diol]: in assay [2], the concentration for half-maximal inhibition (IC50) came to 3.8 nM. Same read-out and setting: next, `COc1ccc([C@@H]2CN(C(=O)[C@@H](O)CO)C[C@@]2(C)[C@@H](C)O)cc1OC1CN(c2cc(C#N)ccn2)C1` [Example 7, (2S)-3-[(3S,4S)-3-[(1R)-1-hydroxyethyl]-4-(4-methoxy-3-{[1-(4-cyanopyridin-2-yl)azetidin-3-yl]oxy}phenyl)-3-methylpyrrolidin-1-yl]-3-oxopropane-1,2-diol]: 0.44 nM. Same read-out and setting: next, `[2H]C([2H])([2H])c1ccc(N2CC(Oc3cc([C@@H]4CN(C(=O)[C@@H](O)CO)C[C@@]4(C)[C@@H](C)O)ccc3OC)C2)nc1` [Example 14, (S)-2,3-dihydroxy-1-((3S,4S)-3-((R)-1-hydroxyethyl)-4-(4-methoxy-3-((1-(5-(methyl-D3)pyridin-2-yl)azetidin-3-yl)oxy)phenyl)-3-methylpyrrolidin-1-yl)propan-1-one]: 0.13 nM.
